The record followed here is patent publication US20070093469A1, “Substituted azetidine compounds as cyclooxygenase-1-cyclooxygenase-2 inhibitors, and their preparation and use as medicaments” (LABORATORIOS DEL DR. ESTEVE S.A, priority 2004, published 2007).

This assay concerns rats. Description: Test for activity against edema in rats (carrageenin paw). The format is in vivo. The settings on record: Rattus norvegicus, oral route. As for the experimental part:
IV. Test for Activity Against Edema in Rats
The test for activity against edema is carried out as described in the publication of Winter et al., Proc. Soc. Exp. Biol. Med. 111, 544-547, (1962). The respective part of the description is hereby incorporated by reference and forms part of the present disclosure.
At the beginning of each experimental session the rats are deprived of food, and kept in cages within groups of 5 animals, the cages being fitted with a grating on the floor to prevent coprophagy. After a period of 24 hours without food, the animals are marked in a suitable way, weighed and hydrated via oral administration of 30 ml/kg body weight of tap water. Half an hour after the hydratisation, the compounds to be tested are administered via oral route, in an amount of 10 ml/kg body weight as a suspension in gum arabic at 5% (weight/volume). One hour after administration of the compounds the animals receive 0.1 ml of the inflammation causing agent (carrageenin 1% weight/volume, in sterile solution), injected via subplantar route into the right hind paw of the rats. Immediately after the carrageenin injection the volume of the injected paw is determined using a plethysmometer. The readings are expressed in ml. Readings of the volume of the paw are taken every hour after administration of the carrageenin for 7 hours.
For orientation: The carrageenan paw model is a standard test of acute inflammation.

By ED50 is commonly meant the midpoint of the dose-response relation. A higher ED50 goes with weaker potency. In the case of `CC(C)(C)c1cc(C(=O)N2CC(O)C2)cc(C(C)(C)C)c1` [Example 2, (3,5-di-tert-butyl-phenyly)-(3-hydroxy-azetidin-1-yl)-methanone], the 50% effect level (ED50) was put at a dose of 28 mg/kg. On to `CC1C(O)CN1C(=O)c1cc(C(C)(C)C)c(O)c(C(C)(C)C)c1` (centres unmarked) [Example 4, (3,5-di-tert-butyl-4-hydroxy-phenyl)-(3-hydroxy-2-methyl-azetidin-1-yl)-methanone], for which the ED50 came out at 31 mg/kg.
